From patent US11719696B2, “Methods and compounds for diagnosing threonyl-tRNA synthetase-associated diseases and conditions” (The University of Vermont and State Agricultural College, priority 2012, dated 2023)
Numbering of substitutions follows the chain as printed. Names may count otherwise.

Legend:
human TARS = test: GTPase (GTP hydrolysis) assay; type: biochemical; details: for change in TARS GTPase activity upon treatment: 10 μM compound
[1] = system: Human umbilical vein endothelial cells (HUVECs); test: In vitro endothelial tube formation assay; type: cell-based
Procedure: In vitro Tube Formation Assay—Tube formation assays were performed as described (Arnaoutova and Kleinman 2010; Cassavaugh, Hale et al., 201). Human Umbilical Vein Endothelial Cells (HUVECs) were seeded in 48-well plates (1.5×10^4 cells/well) coated with 100 μl of Matrigel™ Basement Membrane Matrix Growth Factor Reduced (BD Biosciences, San Jose, Calif.) and incubated in Clonetics® EGM®-2 complete media (Lonza, Annandale, N.J.) or EGM®-2 with reduced serum (0.2% fetal bovine serum). Cells were incubated at 37° C. for 6 h then fixed in 10% formalin. Fixed samples were imaged by phase-contrast microscopy or stained with Oregon Green 488 Phalloidin (Molecular Probes, Eugene, Oreg.) then imaged with fluorescence microscopy (2× objective). Number of tubes and tube lengths (in pixels) were quantified using the Simple Neurite Tracer (Longair, Baker et al. 2011) plug-in on ImageJ software (NIH). Statistical analysis of one-way ANOVA was performed with GraphPad Software. Multiple comparisons were performed using the Tukey Test.

HUVECs [2] = test: Endothelial cell proliferation assay (alamarBlue); type: cell-based, Human; details: 10 nM BC194 with 50 ng/ml VEGF, low serum media
Procedure: Endothelial Cell Proliferation Assay—The […] alamarBlue® (Invitrogen) reagent was used to assess cell proliferation (Ahmed, Gogal et al. 1994). HUVECs were seeded in a 96-well dish (1×10^3 cells/well) and grown for 48 h in EGM®-2 media. Cells were incubated in 0.2% FBS EGM®-2 media or EGM®-2 complete media as indicated; VEGF (50 ng/ml) and media alone served as controls. After 48 h, 72 h, or 96 h in culture, 10 μl/well premixed alamarBlue® (Invitrogen) was added and after 3 h at 37° C. the amount of reduced alamarBlue® was quantified by fluorescence (excitation at 530 nm, emission at 590 nm) on a microplate reader (Synergy™ HT, BioTek, Winooski, Vt.).

[3] = system: SK-OV3 ovarian cancer cells; test: HIF-1α stabilization in hypoxia (Western blot); type: cell-based, Human
Procedure: Co-Immunoprecipitation—Plasmids expressing biotinylatable TARS (pTARS) and myc-tagged VHL (pVHL) were transfected into HEK293 cells, and then extracts were prepared. Biotin-TARS was precipitated using streptavidin-coupled beads. Myc-VHL was precipitated using anti-myc antibodies. Precipitates were separated by SDS-PAGE, transferred and blots probed with anti-TARS antibody or anti-myc (VHL) antibody. Western blot—After treatments, cells were harvested into sample buffer containing: 0.2 M Tris-HCL, 4% SDS, 4% β-mercaptoethanol, 40% glycerol, 4 μM pyronin Y. Extracts were sheared through a 24-gauge syringe. Samples were separated by 10% SDS-PAGE and transferred to nitrocellulose membrane and probed with rabbit polyclonal anti-TARS (1:500; Santa Cruz Biotechnology, Dallas, Tex.) or monoclonal anti-HIF-1α (BD Transduction Laboratories, [BD Biosciences, San Jose, Calif.]) (Lounsbury, Beddow et al., 1994). […] Major bands and their empty vector counterparts were detected using SilverSNAP Stain Kit II (Pierce) and excised. […] Peptides were analyzed by electospray ionization (ESI) liquid chromatography mass spectrometry (LC-MS). […] Spectra were obtained using collision-induced dissociation with an LTQ linear quadrupole ion trap-Orbitrap mass spectrometer (Thermo Electro, San Jose, Calif.) and analyzed using SEQUEST (Bioworks software package, version 3.3.1; Thermo Electron, San Jose, Calif.). […]

[4] = system: chorioallantoic membrane (CAM); test: Chick chorioallantoic membrane (CAM) assay; type: in vivo, chicken; details: for CAM vessel formation / vascularization on application of protein: purified protein applied daily to sponge on CAM, 72 h
Procedure: Chick Chorioallantoic Membrane Assay—Fertilized chicken eggs (Sunrise Farms, Catskill, N.Y.) day 1-2 post-laying were incubated in a humidified incubator at 37° C. for 72 h. Cleaned eggs were cracked and plated in a sterile 10 cm^2 tissue culture-treated dish and incubated at 37° C. for another 7 days. On developmental day 10, 1 mm sterile gelatin sponge pieces (Surgifoam®; Johnson & Johnson Wound Management, Somerville, N.J.) were placed within the outer one-third of the membrane between large vessels. 40 μg/ml human bFGF and 2 μg/ml human VEGF were used as pro-angiogenic control compounds; 100 μg/mL retinoic acid (Sigma-Aldrich, St. Louis, Mo.) diluted in phosphate-buffered saline (PBS) was used as an angiostatic control. All compounds were applied in 10 μl to the CAM every 24 h for 72 h. Images were taken using a Leica MZ6 stereomicroscope every 24 h. Compounds were scored according to a modified version of Intensity Scoring as previously described (Ribatti, Nico et al. 2006). Briefly, each experimental condition was given a blinded score from 0-5 based on the change in the extent of vessel convergence and formation in proximity to the sponge from day 0 to day 3. Total score is averaged individual experimental condition scores from at least 15 replicates.
Fertilized chicken embryos were cultured ex-ova and, starting at developmental day 10, agents were applied daily to gelfoam sponges on the CAM. Images were recorded daily over 72 h and scored blindly according to a modified version Intensity Scoring as previously described (Ribatti, Nico, 2006). Additional details regarding methods are provided in the Methods and Materials section of Example 1.

HUVECs [5] = test: TARS mRNA by quantitative RT-PCR; type: cell-based, Human; details: HUVECs exposed to 50 ng/ml
Procedure: Quantitative RT-PCR—Total RNA was extracted from cells using the RNeasy column protocol and cDNA was generated using an Omniscript reverse transcriptase assay according to the manufacturer's instructions (Qiagen, Frederick, Md.). Primers and probes for TARS and β2-microglobulin were Assays-on-Demand (Applied Biosystems, [Life Technologies, Carlsbad, Calif.]). RT-qPCR was performed using an ABI prism 7700 Sequence Detection System (Applied Biosystems). The relative quantity of mRNA level was determined using the comparative CT (ΔΔCT) method using β2-microglobulin to normalize mRNA level (Cassavaugh, Hale et al. 2011).

[6] = canonical substrate added to human TARS

In the case of `Nc1ncnc2c1ncn2[C@@H]1O[C@H](COP(=O)(O)OP(=O)(O)OP(=O)(O)O)[C@@H](O)[C@H]1O` [ATP], the “decrease in GTPase activity” value (human TARS; [6]) is reported as 77%.

`C[C@@H]1C[C@H](C)C[C@H](C)[C@@H](O)CC(=O)O[C@H]([C@@H]2CC[C@H]2C(=O)O)C/C=C/C=C(/C#N)[C@H](O)[C@@H](C)C1` [BC194, reference compound] was tested, and the tube length ([1]; HUVECs on Matrigel, range of BC194 concentrations, 6 h) was “unaffected”, the “concentration required to affect tube formation relative to that required to detect unfolded protein response (phospho-eIF2a) and apoptosis (cleaved caspase-3)” value ([1]; fold lower) was 100 fold and the “effect on VEGF proliferative response” value (HUVECs [2]) was “did not significantly reduce”. The “change in TARS GTPase activity upon treatment” value (human TARS) was “no observable change”, the HIF-1α transcription [3] was “no change” and the “CAM vessel formation with inhibitor” value ([4]; daily application to gel sponge, basal level and after stimulation with bFGF or VEGF) was “inhibited vessel formation”.

For `C[C@@H]1C[C@H](C)C[C@H](C)[C@@H](O)CC(=O)O[C@H]([C@@H]2CCC[C@H]2C(=O)O)C/C=C/C=C(/C#N)[C@H](O)[C@@H](C)C1` [borrelidin, reference compound], the “change in TARS GTPase activity upon treatment” value (human TARS) was “no observable change” and the HIF-1α transcription [3] was “no change”.

`C[C@@H](O)[C@H](N)C(=O)O` [threonine] was tested, and the “increase in GTPase activity” value (human TARS; [6]) was 26%.

With “LARS: N-terminal His6-tagged human leucyl tRNA synthetase purified from E. coli” the “CAM vessel formation / vascularization on application of protein” value (“CAM vessel formation / vascularization” for short) [4] was “no observable effect”.

With TNF-α the “TARS transcription (TARS mRNA)” value (HUVECs [5]) was “do not induce TARS transcription”.

With VEGF the “TARS transcription (TARS mRNA)” value (HUVECs [5]) was “do not induce TARS transcription”.

B1: L567V TARS: BC194-resistant (borrelidin-resistant) L567V mutant of human TARS (protein, UniProt P26639 1-723, looked up, variant L567V)
Threonine--tRNA ligase 1, …: MFEEKASSPSGKMGGEEKPIGAGEEKQKEGGKKKNKEGSGDGGRAELNPWPEYIYTRLEMYNILKAEHDSILAEKAEKDSKPIKVTLPDGKQVDAESWKTTPYQIACGISQGLADNTVIAKVNNVVWDLDRPLEEDCTLELLKFEDEEAQAVYWHSSAHIMGEAMERVYGGCLCYGPPIENGFYYDMYLEEGGVSSNDFSSLEALCKKIIKEKQAFERLEVKKETLLAMFKYNKFKCRILNEKVNTPTTTVYRCGPLIDLCRGPHVRHTGKIKALKIHKNSSTYWEGKADMETLQRIYGISFPDPKMLKEWEKFQEEAKNRDHRKIGRDQELYFFHELSPGSCFFLPKGAYIYNALIEFIRSEYRKRGFQEVVTPNIFNSRLWMTSGHWQHYSENMFSFEVEKELFALKPMNCPGHCLMFDHRPRSWRELPLRLADFGVLHRNELSGALTGLTRVRRFQQDDAHIFCAMEQIEDEIKGCLDFLRTVYSVFGFSFKLNLSTRPEKFLGDIEVWDQAEKQLENSLNEFGEKWELNSGDGAFYGPKIDIQIKDAIGRYHQCATIQLDFQVPIRFNLTYVSHDGDDKKRPVIVHRAILGSVERMIAILTENYGGKWPFWLSPRQVMVVPVGPTCDEYAQKVRQQFHDAKFMADIDLDPGCTLNKKIRNAQLAQYNFILVVGEKEKISGTVNIRTRDNKVHGERTISETIERLQQLKEFRSKQAEEEF
With B1 the “sensitivity of the protein's CAM angiogenic effect to BC194” value ([4]; protein co-applied with BC194) was “not inhibited” and the “CAM vessel formation / vascularization” value [4] was “stimulated vessel formation”.

B2: R442A TARS: aminoacylation-deficient human TARS mutant, active site Arg442 substituted with alanine (protein, UniProt P26639 1-723, looked up, variant R442A)
Threonine--tRNA ligase 1, …: B1 Threonine--tRNA ligase 1, … with R442A, V567L
B2 was tested, and the “CAM vessel formation / vascularization” value [4] was “virtually indistinguishable from wild type”.
